# ChEMBL document CHEMBL1268846, “Synthesis and antiproliferative evaluation of N,N-disubstituted-N'-[1-aryl-1H-pyrazol-5-yl]-methnimidamides” (2010)
# Legend:
# Type in all cases: functional
# [1] = Growth inhibition of human NPC-TW01 cells after 72 hrs by MTT assay; conditions: NPC-TW01, 72 h
# [2] = system: Jurkat; assay: Growth inhibition of human Jurkat cells after 72 hrs by MTT assay
# [3] = system: NCI-H661; assay: Growth inhibition of human NCI-H661 cells after 72 hrs by MTT assay; conditions: NCI-H661, 72 h
GI50 [2],GI50 [3],SMILES,GI50 [1]
12.5 µM,9.9 µM,COc1ccc(-c2nn(-c3ccccc3)c(/N=C/N(C)C)c2C=O)cc1,27.2 µM
26.3 µM,31.4 µM,CN(C)/C=N/c1c(C=O)c(-c2ccccc2)nn1-c1ccccc1Cl,23.3 µM
9.7 µM,31 µM,Cc1cccc(-n2nc(-c3ccccc3)c(C=O)c2/N=C/N(C)C)c1,8.9 µM
> 50 µM,35.1 µM,C/C(=N\c1cc(-c2ccccc2)nn1-c1ccccc1)N(C)C,> 50 µM
> 50 µM,> 50 µM,CN/C(C)=N/c1cc(-c2ccccc2)nn1-c1ccccc1,> 50 µM
19.7 µM,33.4 µM,COc1ccc(-n2nc(-c3ccccc3)c(C=O)c2/N=C/N(C)C)cc1,20.2 µM
29 µM,17.7 µM,O=Cc1c(-c2ccccc2)nn(-c2ccccc2)c1/N=C/N1CCCCC1,24.4 µM
7.3 µM,6.7 µM,CN(C)/C=N/c1c(C=O)c(-c2ccccc2)nn1-c1ccc(Br)cc1,7.4 µM
23.5 µM,31.4 µM,CN(C)/C=N/c1c(C=O)c(-c2ccccc2)nn1-c1ccccc1,9.3 µM
> 50 µM,50 µM,CN(C)/C=N/c1c(C=O)c(-c2ccccc2)nn1-c1cccc([N+](=O)[O-])c1,36.7 µM
> 50 µM,> 50 µM,CN/C=N/c1cc(-c2ccccc2)nn1-c1ccccc1,> 50 µM
9.5 µM,11.9 µM,Cc1ccc(-c2nn(-c3ccccc3)c(/N=C/N(C)C)c2C=O)cc1,9.7 µM
8.3 µM,6.9 µM,CN(C)/C=N/c1c(C=O)c(-c2ccccc2)nn1-c1cccc(Cl)c1,6.4 µM
30 µM,28.8 µM,CCN(/C=N/c1c(C=O)c(-c2ccccc2)nn1-c1ccccc1)CC,30.5 µM
7.9 µM,8.6 µM,CN(C)/C=N/c1c(C=O)c(-c2ccc(Cl)cc2)nn1-c1ccccc1,8.1 µM
31.3 µM,17.6 µM,O=Cc1c(-c2ccccc2)nn(-c2ccccc2)c1/N=C/N1CCCC1,> 50 µM
> 50 µM,> 50 µM,CC/C(=N\c1cc(-c2ccccc2)nn1-c1ccccc1)NC,> 50 µM
43.5 µM,42.8 µM,CN(C)/C=N/c1c(C=O)c(C(C)(C)C)nn1-c1ccccc1,> 50 µM
36.1 µM,46.7 µM,CN(C)/C(=N/c1cc(-c2ccccc2)nn1-c1ccccc1)c1ccccc1,20.8 µM
